According to patent US10316070B2, “Dual protected pro-coelenterazine substrates” (PROMEGA CORPORATION, priority 2016, dated 2019):
Blank lines part the entries; values can stand above or below the compound they belong to.

What was measured:
Cathepsin C = target: T1, Cathepsin C (Bos taurus, UniProt Q3ZCJ8); experiment: Cathepsin C assay: light output of furimazine mono- or bis-Gly-Phe pro-substrate with Nanoluc, with and without Cathepsin C; assay type: biochemical, bovine; details: for Signal to Background: Cathepsin C vs none; for Background RLU: without Cathepsin C, Nanoluc
T1 construct: Cathepsin C (Sigma C8511 from bovine spleen); purchased Sigma C8511; host or cells: bovine spleen (tissue-derived)
T1 sequence (Q3ZCJ8 231-394 limits assumed): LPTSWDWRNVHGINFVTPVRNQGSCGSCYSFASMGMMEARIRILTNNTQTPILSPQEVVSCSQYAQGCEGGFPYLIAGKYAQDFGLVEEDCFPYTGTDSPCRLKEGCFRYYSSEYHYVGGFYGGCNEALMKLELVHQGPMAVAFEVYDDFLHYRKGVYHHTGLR
T1 sequence (Q3ZCJ8 25-134 limits assumed): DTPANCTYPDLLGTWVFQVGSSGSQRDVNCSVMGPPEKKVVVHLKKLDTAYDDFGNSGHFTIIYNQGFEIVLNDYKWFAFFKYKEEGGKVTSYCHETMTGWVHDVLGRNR
T1 sequence (Q3ZCJ8 395-463 limits assumed): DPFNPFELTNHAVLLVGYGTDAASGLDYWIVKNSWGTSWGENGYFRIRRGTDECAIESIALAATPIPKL
Experimental: Cathepsin C assay. To the solution of 50 μl of furimazine mono- or bis-Gly-Phe compound (50 μM) in 1:1 NanoGlo and nanopure water containing DTT 5 mM and 50 µL of 1 ng/mL Nanoluc buffer in 1:1 NanoGlo and nanopure water containing 5 mM DTT was added, then 10 μL of Cathepsin C (Sigma C8511 from bovine spleen) at final concentration of 0.1 U/well was added. The light output was measured over time. The background of pro-substrate was measured under same condition without adding Cathepsin C.
(§1) The synthesized coelenterazine analogues (compounds of formula (I)) were evaluated for their background and signal/background ratio.

alkaline phosphatase = experiment: Alkaline phosphatase assay: light output of furimazine mono- or bis-phosphate pro-substrate with Nanoluc, with and without alkaline phosphatase; assay type: biochemical; details: for Signal to Background: alkaline phosphatase vs none; for Background RLU: without alkaline phosphatase, Nanoluc
Experimental: Alkaline phosphatase assays. To the solution of 50 μl furimazine mono- or bis-phosphate compound (50 μM) and 50 μL of NanoGlo buffer containing 1 ng/mL Nanoluc was added, then alkaline phosphatase (Sigma) in PBS with final concentration at 1 Unit/ml/μM was added, and the light output was measured over time. The background of pro-substrate was measured under same condition without adding alkaline phasphotase.
as §1

[1] = tested on: thermal stable β-glucosidase; experiment: Glucosidase assay: light output of furimazine mono- or bis-glucoside pro-substrate with Nanoluc, with and without β-glucosidase; assay type: biochemical; details: for Background RLU: without β-glucosidase, Nanoluc; for Signal to Background: β-glucosidase vs no β-glucosidase
Experimental: To the solution of 50 μl of furimazine mono- or bis-glucoside compound (100 μM) in NanoGlo buffer and 50 μl of NanoGlo buffer containing 1 ng/mL Nanoluc was added 11 μl of thermal stable β-glucosidase (Sigma) in PBS with final concentration of 1 Unit/ml/μM, and the light output was measured over time. The background of pro-substrate was measured under same condition without β-glucosidase.
as §1

Compound: NCC(=O)NC(Cc1ccccc1)C(=O)Nc1ccc(COc2c(Cc3ccco3)nc3c(Cc4ccccc4)nc(-c4cccc(NC(=O)C(Cc5ccccc5)NC(=O)CN)c4)cn23)cc1 (stereo not drawn) [WZ-0299, Bis-Gly-Phe-Aminobenzyl Furimazine]
- background (in words) (Cathepsin C; FIG. 3, Tables 5 and 6): down to instrument noise
- Signal to Background (Cathepsin C; Time 5 min): 751
- Background RLU (Cathepsin C; Time 5 min): 20 RLU
- Signal to Background (Cathepsin C; Time 10 min): 1,464
- Background RLU (Cathepsin C; Time 10 min): 21 RLU
- Signal to Background (Cathepsin C; Time 20 min): 2,256
- Background RLU (Cathepsin C; Time 20 min): 18 RLU
- Signal to Background (Cathepsin C; Time 30 min): 3,036
- Background RLU (Cathepsin C; Time 30 min): 14 RLU
- Signal to Background (Cathepsin C; Time 40 min): 3,941
- Background RLU (Cathepsin C; Time 40 min): 14 RLU
- Signal to Background (Cathepsin C; Time 60 min): 8,514
- Background RLU (Cathepsin C; Time 60 min): 15 RLU
- Signal to Background (Cathepsin C; Time 90 min): 11,997
- Background RLU (Cathepsin C; Time 90 min): 16 RLU
- Signal to Background (Cathepsin C; Time 120 min): 23,011
- Background RLU (Cathepsin C; Time 120 min): 12 RLU
- Signal to Background (Cathepsin C; Time 180 min): 29,836
- Background RLU (Cathepsin C; Time 180 min): 17 RLU
- Signal to Background (Cathepsin C; Time 240 min): 46,864
- Background RLU (Cathepsin C; Time 240 min): 15 RLU
- Signal to Background (Cathepsin C; Time 938 min): 17,386
- Background RLU (Cathepsin C; Time 938 min): 12 RLU
- signal-to-background ratio (in words) (Cathepsin C; compared to mono-protected analogue WZ-0294): significantly higher

Compound: O=P(O)(O)Oc1c(Cc2ccco2)nc2c(Cc3ccccc3)nc(-c3ccccc3)cn12 [WZ-0265, Furimazine Phosphate]
- Signal to Background (alkaline phosphatase; Time 5 min): 3
- Background RLU (alkaline phosphatase; Time 5 min): 9,033,396 RLU
- Signal to Background (alkaline phosphatase; Time 11 min): 3
- Background RLU (alkaline phosphatase; Time 11 min): 9,181,168 RLU
- Signal to Background (alkaline phosphatase; Time 21 min): 3
- Background RLU (alkaline phosphatase; Time 21 min): 9,310,668 RLU
- Signal to Background (alkaline phosphatase; Time 31 min): 3
- Background RLU (alkaline phosphatase; Time 31 min): 9,376,837 RLU
- Signal to Background (alkaline phosphatase; Time 42 min): 2
- Background RLU (alkaline phosphatase; Time 42 min): 9,394,555 RLU
- Signal to Background (alkaline phosphatase; Time 62 min): 2
- Background RLU (alkaline phosphatase; Time 62 min): 9,359,460 RLU
- Signal to Background (alkaline phosphatase; Time 93 min): 2
- Background RLU (alkaline phosphatase; Time 93 min): 9,089,377 RLU
- Signal to Background (alkaline phosphatase; Time 123 min): 2
- Background RLU (alkaline phosphatase; Time 123 min): 8,772,026 RLU

Compound: O=P(O)(O)Oc1ccc(COc2c(Cc3ccco3)nc3c(Cc4ccccc4)nc(-c4cccc(OP(=O)(O)O)c4)cn23)cc1 [WZ-0291, Furimazine Bis-Phosphate]
- Signal to Background (alkaline phosphatase; Time 5 min): 18,907
- Background RLU (alkaline phosphatase; Time 5 min): 713 RLU
- Signal to Background (alkaline phosphatase; Time 11 min): 18,699
- Background RLU (alkaline phosphatase; Time 11 min): 739 RLU
- Signal to Background (alkaline phosphatase; Time 21 min): 19,076
- Background RLU (alkaline phosphatase; Time 21 min): 723 RLU
- Signal to Background (alkaline phosphatase; Time 31 min): 18,846
- Background RLU (alkaline phosphatase; Time 31 min): 723 RLU
- Signal to Background (alkaline phosphatase; Time 42 min): 18,568
- Background RLU (alkaline phosphatase; Time 42 min): 722 RLU
- Signal to Background (alkaline phosphatase; Time 62 min): 18,861
- Background RLU (alkaline phosphatase; Time 62 min): 678 RLU
- Signal to Background (alkaline phosphatase; Time 93 min): 17,014
- Background RLU (alkaline phosphatase; Time 93 min): 680 RLU
- Signal to Background (alkaline phosphatase; Time 123 min): 14,664
- Background RLU (alkaline phosphatase; Time 123 min): 704 RLU
- background (in words) (alkaline phosphatase; compared to mono-protected analogue WZ-0263): low
- signal-to-background ratio (in words) (alkaline phosphatase; compared to mono-protected analogues WZ-0263 and WZ-0265): significantly higher

Compound: O=P(O)(O)Oc1ccc(COc2c(Cc3ccco3)nc3c(Cc4ccccc4)nc(-c4ccccc4)cn23)cc1 [WZ-0263, Furimazine Benzyl Phosphate]
- Signal to Background (alkaline phosphatase; Time 5 min): 203
- Background RLU (alkaline phosphatase; Time 5 min): 32,464 RLU
- Signal to Background (alkaline phosphatase; Time 11 min): 232
- Background RLU (alkaline phosphatase; Time 11 min): 36,745 RLU
- Signal to Background (alkaline phosphatase; Time 21 min): 236
- Background RLU (alkaline phosphatase; Time 21 min): 42,522 RLU
- Signal to Background (alkaline phosphatase; Time 31 min): 245
- Background RLU (alkaline phosphatase; Time 31 min): 48,399 RLU
- Signal to Background (alkaline phosphatase; Time 42 min): 244
- Background RLU (alkaline phosphatase; Time 42 min): 54,309 RLU
- Signal to Background (alkaline phosphatase; Time 62 min): 230
- Background RLU (alkaline phosphatase; Time 62 min): 65,661 RLU
- Signal to Background (alkaline phosphatase; Time 93 min): 200
- Background RLU (alkaline phosphatase; Time 93 min): 80,929 RLU
- Signal to Background (alkaline phosphatase; Time 123 min): 170
- Background RLU (alkaline phosphatase; Time 123 min): 94,825 RLU

Now from value to compound:

- Background RLU ([1]; Time 0 hr): 10,028 RLU
- Signal to Background ([1]; Time 0 hr): 3,235
- Background RLU ([1]; Time 0.1 hr): 10,884 RLU
- Signal to Background ([1]; Time 0.1 hr): 2,915
- Background RLU ([1]; Time 0.25 hr): 12,298 RLU
- Signal to Background ([1]; Time 0.25 hr): 2,426
- Background RLU ([1]; Time 0.5 hr): 13,047 RLU
- Signal to Background ([1]; Time 0.5 hr): 2,193
- Background RLU ([1]; Time 1 hr): 18,529 RLU
- Signal to Background ([1]; Time 1 hr): 1,172
- Background RLU ([1]; Time 1.5 hr): 20,751 RLU
- Signal to Background ([1]; Time 1.5 hr): 926
- Background RLU ([1]; Time 2 hr): 24,489 RLU
- Signal to Background ([1]; Time 2 hr): 627
- Background RLU ([1]; Time 3 hr): 29,692 RLU
- Signal to Background ([1]; Time 3 hr): 385
- Background RLU ([1]; Time 4 hr): 33,514 RLU
- Signal to Background ([1]; Time 4 hr): 264
- Background RLU ([1]; Time 5 hr): 37,181 RLU
- Signal to Background ([1]; Time 5 hr): 210
- Background RLU ([1]; Time 6 hr): 40,543 RLU
- Signal to Background ([1]; Time 6 hr): 157
- Background RLU ([1]; Time 16 hr): 23,092 RLU
- Signal to Background ([1]; Time 16 hr): 36
Compound: OCC1OC(Oc2ccc(COc3c(Cc4ccco4)nc4c(Cc5ccccc5)nc(-c5ccccc5)cn34)cc2)C(O)C(O)C1O [WZ-0246, β-D-glucose Benzyl Furimazine]

- background signal (in words) ([1]; FIG. 1, Tables 1 and 2): close to instrument noise
- Background RLU ([1]; Time 0 hr): 87 RLU
- Signal to Background ([1]; Time 0 hr): 340,753
- Background RLU ([1]; Time 0.1 hr): 39 RLU
- Signal to Background ([1]; Time 0.1 hr): 134,646
- Background RLU ([1]; Time 0.25 hr): 32 RLU
- Signal to Background ([1]; Time 0.25 hr): 73,734
- Background RLU ([1]; Time 0.5 hr): 21 RLU
- Signal to Background ([1]; Time 0.5 hr): 58,191
- Background RLU ([1]; Time 1 hr): 26 RLU
- Signal to Background ([1]; Time 1 hr): 21,501
- Background RLU ([1]; Time 1.5 hr): 26 RLU
- Signal to Background ([1]; Time 1.5 hr): 12,822
- Background RLU ([1]; Time 2 hr): 20 RLU
- Signal to Background ([1]; Time 2 hr): 11,569
- Background RLU ([1]; Time 3 hr): 14 RLU
- Signal to Background ([1]; Time 3 hr): 11,041
- Background RLU ([1]; Time 4 hr): 25 RLU
- Signal to Background ([1]; Time 4 hr): 5,297
- Background RLU ([1]; Time 5 hr): 26 RLU
- Signal to Background ([1]; Time 5 hr): 4,585
- Background RLU ([1]; Time 6 hr): 22 RLU
- Signal to Background ([1]; Time 6 hr): 5,060
- Background RLU ([1]; Time 16 hr): 26 RLU
- Signal to Background ([1]; Time 16 hr): 2708
- signal-to-background ratio, fold higher than the corresponding mono-protected analogue ([1]; at the initial time point): ~100 fold
- signal-to-background ratio (in words) ([1]; compared to mono-protected analogues WZ-0261 and WZ-0246): significantly higher
- background, fold lower than the corresponding mono-protected analogue WZ-0246 ([1]; vs WZ-0246): ~200 fold
Compound: OCC1OC(Oc2ccc(COc3c(Cc4ccco4)nc4c(Cc5ccccc5)nc(-c5ccc(OC6OC(CO)C(O)C(O)C6O)cc5)cn34)cc2)C(O)C(O)C1O [WZ-0262, bis-(β-D-glucose) Benzyl Furimazine]

- Signal to Background (Cathepsin C; Time 5 min): 151
- Background RLU (Cathepsin C; Time 5 min): 8,974 RLU
- Signal to Background (Cathepsin C; Time 10 min): 163
- Background RLU (Cathepsin C; Time 10 min): 9,538 RLU
- Signal to Background (Cathepsin C; Time 20 min): 180
- Background RLU (Cathepsin C; Time 20 min): 10,825 RLU
- Signal to Background (Cathepsin C; Time 30 min): 197
- Background RLU (Cathepsin C; Time 30 min): 11,741 RLU
- Signal to Background (Cathepsin C; Time 40 min): 210
- Background RLU (Cathepsin C; Time 40 min): 12,664 RLU
- Signal to Background (Cathepsin C; Time 60 min): 232
- Background RLU (Cathepsin C; Time 60 min): 14,295 RLU
- Signal to Background (Cathepsin C; Time 90 min): 255
- Background RLU (Cathepsin C; Time 90 min): 16,141 RLU
- Signal to Background (Cathepsin C; Time 120 min): 275
- Background RLU (Cathepsin C; Time 120 min): 17,178 RLU
- Signal to Background (Cathepsin C; Time 180 min): 273
- Background RLU (Cathepsin C; Time 180 min): 20,562 RLU
- Signal to Background (Cathepsin C; Time 240 min): 259
- Background RLU (Cathepsin C; Time 240 min): 23,705 RLU
- Signal to Background (Cathepsin C; Time 938 min): 142
- Background RLU (Cathepsin C; Time 938 min): 15,995 RLU
Compound: NCC(=O)NC(Cc1ccccc1)C(=O)Nc1ccc(COc2c(Cc3ccco3)nc3c(Cc4ccccc4)nc(-c4ccccc4)cn23)cc1 (stereo not drawn) [WZ-0294, Gly-Phe-Aminobenzyl Furimazine]
